Reference: patent US20190307690A1 (THE AMERICAN UNIVERSITY IN CAIRO, priority 2016, published 2019)

Assays:
[1] = In-vitro drug release analysis (dialysis, PBS pH 7.4) with release kinetics and f1/f2 comparison; type: physicochemical; settings: oxaliplatin release
Description: The drug release testing was conducted according to a described method (Shazly et al., Comparison of dialysis and dispersion methods for in vitro release determination of drugs from multilamellar liposomes, Dissolution Technol., vol. 15, no. 2, pp. 7-10, 2008). […] A volume of 0.5 ml of liposomal preparation was placed in a dialysis tubing (3.8 cm in length). Both ends were tied. The dialysis bag was suspended in 25 ml PBS at pH 7.4 and maintained at 37±0.5° C. (Shazly et al., 2008). The dispersion was rotated at 200 strokes/minute in a water bath shaker (Shazly et al., 2008). At predetermined time intervals of 0.25, 0.5, 1, 1.5, 2, 4, 6, 8, 12, 24, 48, and 72 h; 1 ml aliquots were sampled and replaced with 1 ml fresh pH 7.4 PBS, which was maintained at the same temperature as the samples being 37±0.5° C. Drug concentrations were determined using HPLC.
Two methods were used to investigate the kinetics of drug release profile from the prepared liposomal formulations.
This method involved the fitting of the release data to one of the following seven release kinetic models.
Where, Qt is the amount of drug released in time t, Q0 is the initial amount of drug in the solution and K0 is the zero order release constant expressed in units of concentration/time. To study the release kinetics, data obtained from in-vitro drug release studies were plotted as cumulative amount of drug released versus time.
Where, Ct is the concentration of drug released in time t, C0 is the initial concentration of drug, K1 is the first order rate constant. The data obtained were plotted as log cumulative percentage of drug remaining versus time which would yield a straight line with a slope of −K/2.303.
Where, Q is the amount of drug released in time t, KH is the Higuchi dissolution constant. The data obtained were plotted as cumulative percentage of drug released versus square root of time.
Where, Qt is the amount of drug remaining in time t, Q0 is the initial amount of the drug in liposome and KC is the rate constant for Hixson-Crowell rate equation. The data obtained were plotted as Cube root of cumulative percentage of drug remaining versus time.
Where Mt/M∞ is a fraction of drug released at time t, KP is the release rate constant and n is the release exponent. The data obtained were plotted as log (cumulative percentage of drug released) versus log (time).
Where [Mt/M∞] is a fraction of drug released at time t, KB is the release rate constant. To study the release kinetics, data obtained from in-vitro drug release were plotted as [d(Mt/M∞)/dt] against the root of time inverse on x-axis.
Where Vm is the maximum release rate, Km is the Michaelis-Menten constant, C is the amount of drug released, and t is time. The data obtained were plotted as drug release % versus time. Michaelis-menten was previously reported in describing the release kinetics of Ketorolac from silica nanoparticles (Lopez Goerneet al., Obtaining of sol-gel ketorolac-silica nanoparticles: Characterization and drug release kinetics, J. Nanomater., vol. 2013, 2013).
This method utilizes the difference factor (f1), similarity factor (f2) to compare the release profiles of different formulations by measuring the percent difference and the percent similarity respectively.
Where, n is the number of release sample time intervals, Rt, and Tt are the percent released at each time point, t, for the reference and test drug release profiles, respectively.

MCF-7 cell line = assay: γ-H2AX assay (DNA damage); type: cell-based, human; settings: 2 μM, 1 hr exposure, 24 hours in fresh media; preliminary data
Description: After incubation, the media was discarded and the cells were further incubated in fresh media for 24 hours. Cells were then fixed using formaldehyde and permeabilized with Triton X-100, and subsequently incubated with H2AX primary antibody for 1 hr. Then, cells were washed using PBS and were further incubated for 30 min. in FITC mouse secondary antibody and washed using PBS. Finally cells were stained using DAPI and observed under a fluorescence microscope.

[2] = reference [91]; cited from earlier work

N[C@@H]1CCCC[C@H]1N.O=C([O-])C(=O)[O-].[Pt+2] [Oxaliplatin, Platinum(2+) ethanedioate (1R,2R)-1,2-cyclohexanediamine (1:1:1)]
Baker-Lonsdale K (release rate constant) [1]: 0.1963
First-order K1 (release rate constant) [1]: −0.0172
Higuchi KH (rate constant) [1]: 4.5644
Hixson-Crowell KC (cube root law release constant) [1]: −0.0127
Korsmeyer-peppas n (slope exponent) [1]: 0.0257
Michaelis-Menten K (release rate constant) [1]: 0.0422
Zero-order K0 (release rate constant) [1]: 0.3444
F1 (difference factor) ([1]; Reference LP-Ox): 11.37
F2 (similarity factor) ([1]; Reference LP-Ox): 50.60
F1 (difference factor) ([1]; Reference LP-void-Oxpt): 22.47
F2 (similarity factor) ([1]; Reference LP-void-Oxpt): 38.25
F1 (difference factor) ([1]; Reference Lipoxal): 252.7
F2 (similarity factor) ([1]; Reference Lipoxal): 8.940
DNA damage magnitude (γ-H2AX immunofluorescence), in words (MCF-7 cell line): relatively lower DNA damage
Cell membrane permeability [2]: <1 × 10^−6 [91] cm/s
